The results in this text go back to patent publication US20050222204A1, “Opioid receptor antagonists” (priority 2002, published 2005).

Like-named read-outs stand apart in the source and are kept apart here.

Data set [1] has as its target T1, human opioid receptors, Mu (MOR) (Homo sapiens, UniProt P35372).
T1 construct: expressed in transfected cells
Put plainly: GTPγS functional antagonist assay (SPA), mu receptor, vs DAMGO. It counts as biochemical. How it is done:
(§1) An SPA-based GTPgS assay format was developed based on previous opioid (Emmerson et al., J. Pharm Exp Ther 278,1121,1996; Homg et al., Society for Neuroscience Abstracts, 434.6, 2000) and muscarinic (DeLapp et al., JPET 289, 946, 1999) assay formats. Membranes were resuspended in 20 mM HEPES, 100 mM NaCl, 5 mM MgCl2, 1 mM DTT, and 1 mM EDTA. […] of GTPγ[35S], compound, membrane suspension (20 microgram/well), and wheat germ agglutinin coated SPA beads (1 mg/well) were added to clear bottom 96 well assay plates. GDP ([…]) was added to the membrane solution prior to addition to the assay plates. Plates were sealed and incubated for four hours at room temperature then placed in a refrigerator overnight to allow the beads to settle. […] Plates were warmed to room temperature and counted in a Wallac Microbeta scintillation counter. For antagonist assays, specific agonists were added at the following concentrations: (MOR) DAMGO 1 micromolar, (DOR) DPDPE 30 nM, (KOR) U69593 300 nM. Kb's were determined by Cheng-Prusoff equation (Cheng and Prusoff, 22,3099 1973).

For data set [2], the target named is T2, human opioid receptors, Kappa (KOR) (Homo sapiens, UniProt P41145).
T2 construct: expressed in transfected cells
The data set is described as follows: GTPγS functional antagonist assay (SPA), kappa receptor, vs U69593. It is filed as biochemical. The protocol: as §1

Data set [3] concerns the target T3, human opioid receptors, Delta (DOR) (Homo sapiens, UniProt P41143).
T3 construct: expressed in transfected cells
Put plainly: GTPγS functional antagonist assay (SPA), delta receptor, vs DPDPE. It is filed as biochemical. How it is done:
as §1

The nature of data set [4]: Bioavailability in rat (Table 2). To be noted: in vivo, read-out: Metabolis Rat (bioavailability).
The target of data set [5] is T4, human Cytochrome 2D6 (CYP2D6) (Homo sapiens, UniProt P10635).
T4 construct: from tissue; host or cells: human liver microsomes
The data set is described as follows: Assay for inhibition of CYP2D6 activity (human liver microsomes, bufuralol substrate). It is filed as in vitro ADME. How it is done:
The reduced potential for inhibition of cytochrome P450 was discovered using a standard assay that monitors the compound's ability to inhibit Cyp2D6 a member of the cytochrome P450 family of enzymes.
Assay for Inhibition of CYP2D6 Activity
The inhibition of human Cytochrome 2D6 (CYP2D6) activity was studied using a validated high through-put screening assay. A 3 uL aliquot of an 8 mM stock solution of compound was delivered to 397 uL of pH 7.4 (50 mM) phosphate buffer resulting in an initial concentration of 60 uM. The compound dose solutions were prepared by serial dilutions to produce concentrations of […]. A 6 mM NaDPH stock solution was prepared by addition of 100 mg of NaDPH to 20 mL of pH 7.4 buffer. A 600 uL aliquot of Human liver Microsomes (HLM-20.0 mg/ml) was added to 20 ml of pH 7.4 phosphate buffer to produce a 0.6 mg/ml solution of HLM. To the HLM mixture was added 120 uL of a 10 mM bufurolol solution (CYP2D6 substrate) producing a final bufuralol concentration of 60 uM. To each assay plate was added 100 uL of the compound dose solutions, 25 uL NaDPH and 25 uL HLM/bufurolol solution. Samples were incubated at 37° C. for 10 minutes and the reaction was quenched with 25 uL of a 2% perchloric acid solution, followed by centrifugation at 3200 rpm for 30 min. The resulting supernatant was assayed for bufurolol concentrations using a Turbo Ion Spray API 150EX MS method. The calculated IC50 value represents the compound concentration that results in a 50% reduction in burfurolol consumption. Table 3 below provides a comparative data for inhibition of CyP2D6.

A further data set deals with male Long-Evans rats. Put plainly: Antiorexigenic effect: food consumption in fasted rats. It is filed as in vivo, rat. To be noted: oral 3 mg/kg; rats fasted 18 hours; over 1 hour, 2 hour and 4 hour periods; vs untreated control. The protocol:
Compounds were tested for effects on food consumption in male Long-Evans rats which had been fasted for 18 hours prior to testing. The weight of food consumed was measured for groups of 6 rats treated with test substance and compared to the food consumed by an untreated control group of 6 animals.

T3 sequence (P41143 whole entry): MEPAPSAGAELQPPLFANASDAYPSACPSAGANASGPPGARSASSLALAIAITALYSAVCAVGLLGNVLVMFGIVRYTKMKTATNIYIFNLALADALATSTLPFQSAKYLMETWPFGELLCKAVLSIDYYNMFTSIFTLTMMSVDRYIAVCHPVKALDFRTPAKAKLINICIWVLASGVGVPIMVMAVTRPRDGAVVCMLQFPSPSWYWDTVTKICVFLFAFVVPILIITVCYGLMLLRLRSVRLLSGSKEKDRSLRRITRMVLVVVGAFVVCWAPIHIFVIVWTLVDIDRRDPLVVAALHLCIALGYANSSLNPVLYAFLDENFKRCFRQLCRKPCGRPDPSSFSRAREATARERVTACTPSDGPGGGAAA
T1 sequence (P35372 whole entry): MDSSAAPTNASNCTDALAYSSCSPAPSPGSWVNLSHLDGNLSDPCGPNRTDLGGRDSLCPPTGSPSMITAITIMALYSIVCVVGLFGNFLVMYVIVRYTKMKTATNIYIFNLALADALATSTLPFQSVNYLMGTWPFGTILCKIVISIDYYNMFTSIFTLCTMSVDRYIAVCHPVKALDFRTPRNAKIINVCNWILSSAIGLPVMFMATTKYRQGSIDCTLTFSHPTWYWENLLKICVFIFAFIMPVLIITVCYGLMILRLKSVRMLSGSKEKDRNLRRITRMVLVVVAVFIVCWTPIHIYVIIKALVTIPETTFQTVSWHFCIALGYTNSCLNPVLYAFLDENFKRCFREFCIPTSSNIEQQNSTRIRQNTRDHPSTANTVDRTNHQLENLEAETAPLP
T4 sequence (P10635 whole entry): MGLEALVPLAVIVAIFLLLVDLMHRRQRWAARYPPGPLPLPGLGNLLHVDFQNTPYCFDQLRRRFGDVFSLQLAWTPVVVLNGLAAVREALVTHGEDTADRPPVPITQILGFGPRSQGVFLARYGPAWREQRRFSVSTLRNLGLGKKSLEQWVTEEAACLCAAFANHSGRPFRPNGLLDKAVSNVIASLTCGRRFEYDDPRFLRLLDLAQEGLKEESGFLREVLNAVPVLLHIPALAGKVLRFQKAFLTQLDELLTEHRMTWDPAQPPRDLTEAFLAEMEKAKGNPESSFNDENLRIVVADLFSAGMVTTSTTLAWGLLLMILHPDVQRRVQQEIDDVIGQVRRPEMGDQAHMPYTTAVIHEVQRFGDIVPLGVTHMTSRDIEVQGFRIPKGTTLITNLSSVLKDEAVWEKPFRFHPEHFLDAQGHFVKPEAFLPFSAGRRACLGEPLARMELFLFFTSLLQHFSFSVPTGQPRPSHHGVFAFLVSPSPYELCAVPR
T2 sequence (P41145 whole entry): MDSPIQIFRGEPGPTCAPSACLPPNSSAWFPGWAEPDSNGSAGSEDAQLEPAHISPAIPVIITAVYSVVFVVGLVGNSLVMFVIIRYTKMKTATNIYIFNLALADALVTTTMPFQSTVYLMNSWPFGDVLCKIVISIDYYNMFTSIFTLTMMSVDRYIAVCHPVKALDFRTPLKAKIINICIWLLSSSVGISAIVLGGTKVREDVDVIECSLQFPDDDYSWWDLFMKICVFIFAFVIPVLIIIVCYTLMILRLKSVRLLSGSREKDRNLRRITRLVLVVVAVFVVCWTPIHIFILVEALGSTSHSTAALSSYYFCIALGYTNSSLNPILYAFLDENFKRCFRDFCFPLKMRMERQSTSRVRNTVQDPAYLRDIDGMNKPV

`C[C@H]1CN(CC[C@H](O)C2CCCCC2)CC[C@@]1(C)c1cccc(C(N)=O)c1` (stereo in doubt) [(I), 3-[1-(3-Cyclohexyl-3-hydroxy-propyl)-3,4-dimethyl-piperidin-4-yl]-benzamide]: the values for the Kb in data set [1], in data set [2] and in data set [3] were 0.12 nM, 1.93 nM and 2.81 nM, respectively. The “fold more potent than the compound of formula (II) in GTP-γ-S functional antagonist assay” value in data set [1] (versus compound (II) of Table 1, mu, kappa, delta) is reported as “at least 2 fold”. Further, in data set [4], the bioavailability turned out to be 32%. For the same molecule, in data set [5] (human liver microsomes, bufuralol substrate, 37° C., 10 minutes), the IC50 was 39000 nM. For the same molecule, in data set [5] (versus compound (III) of Table 3), the “times less likely to inhibit the cytochrome P450 enzyme system compared to compound (III)” value was “over 4 times”. In data set [5] (versus prior clinical trial candidate compound (II) of Table 3), the “times less likely to cause inhibition of the cytochrome P450 enzyme compared to compound (II)” value is recorded as approximately 16 times. For the same molecule, in the data set on male Long-Evans rats, the “inhibition of cumulative food consumed” value is “statistically significant inhibition”.
For the molecule `CCCCCCN1CC[C@@](C)(c2cccc(C(N)=O)c2)[C@@H](C)C1` [(II), reference compound], the Kb in data set [1] was determined as 0.31 nM; in data set [2], 4.51 nM; in data set [3] it was 8.72 nM.
Consider `C[C@H]1CN(CC[C@H](O)C2CCCCC2)CC[C@@]1(C)c1cccc(O)c1` [(III)], for which, in data set [3] (read-out: In Vitro GTPγ-S human opioid receptors Delta (Kb)), the Kb was 1.19 nM.
